Results on 24 molecules are retold here after PubChem BioAssay (NCI).

Molecules are shown by their SMILES.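 Values below derive from 48-hour exposures of cells grown in 96-well plates, with endpoints linearly interpolated between the two concentrations bracketing the appropriate inhibition level. Here, GI50 denotes the concentration required for 50% inhibition of growth. TGI denotes the concentration required for complete inhibition of growth.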 Where a SMILES comes first, the peptide text is derived from it. The star is where a group is joined. Cbz = O=C(OCc1ccccc1)* A value given as a limit tells only on which side of the number the result lay.

Some test systems named below: HOP-92 NSCLC; KM12 colon; NCI/ADR-RES ovarian; SK-MEL-2 melanoma; UACC-257 melanoma.
What all share (experiment): inhibition of tumour cell growth, NCI panel, 48 h

In the case of `COC(=O)CCCCC/C(=C\C(=O)C(Cl)(Cl)Cl)OC`, the TGI in the assay on HOP-92 NSCLC is 57.1 µM; in the assay on KM12 colon it was 95 µM; in the assay on NCI/ADR-RES ovarian, more than 100 µM; with SK-MEL-2 melanoma, 50 µM; in the assay with UACC-257 melanoma, 57.7 µM.

For `CN1CCN(c2ccc3[nH]c(C4=C(O)c5nc(CO)n(C)c5C(=O)C4=O)nc3n2)CC1`, the TGI with HOP-92 NSCLC, in the assay on KM12 colon, with NCI/ADR-RES ovarian, with SK-MEL-2 melanoma and with UACC-257 melanoma was more than 100 µM each time.

`CCC(=O)NCCc1c[nH]c2ccc(OC)cc12`: the TGI in the assay on HOP-92 NSCLC, in the assay with KM12 colon, in the assay with NCI/ADR-RES ovarian, with SK-MEL-2 melanoma and in the assay on UACC-257 melanoma was more than 100 µM in each case.

On to `COC(=O)C1=C(C)NC(C)=C([N+](=O)[O-])C1c1cccc(NO)c1` (configuration not stated), for which the TGI in the assay with HOP-92 NSCLC is 28 µM; in the assay with KM12 colon, 6.85 µM; with NCI/ADR-RES ovarian, 46.6 µM; in the assay with SK-MEL-2 melanoma, more than 43.8 µM; with UACC-257 melanoma it was 28.1 µM.

`O=C1c2ccccc2C(=O)N1c1ccc(OCCN2CCCCC2)cc1`: the TGI in the assay on HOP-92 NSCLC, with KM12 colon, in the assay on NCI/ADR-RES ovarian, with SK-MEL-2 melanoma and with UACC-257 melanoma was more than 100 µM throughout.

Consider `CC(Cc1ccc(O)c(O)c1)C(C)Cc1ccc(O)c(O)c1` (configuration not stated), for which the TGI turned out to be 12.2 µM in the assay on HOP-92 NSCLC; 33.5 µM with KM12 colon; 64.7 µM in the assay with NCI/ADR-RES ovarian; 42.9 µM with SK-MEL-2 melanoma; 37.9 µM with UACC-257 melanoma.

On to `CCOC(=O)CCC(NC(=O)OCc1ccccc1)C(=O)NC(CCC(=O)OCC)C(=O)NC(CCC(=O)OCC)C(=O)NC(CCC(=O)OCC)C(=O)NC(CCC(=O)OCC)C(=O)OCC` (configuration not stated), for which the TGI in the assay on KM12 colon, in the assay on NCI/ADR-RES ovarian, in the assay with SK-MEL-2 melanoma and in the assay on UACC-257 melanoma was more than 100 µM in each case.

For `O=C(NC(Nc1ccc(F)c(Cl)c1)(C(F)(F)F)C(F)(F)F)C(C(F)(F)F)C(F)(F)F`, the TGI is more than 100 µM in the assay with HOP-92 NSCLC; more than 100 µM in the assay on KM12 colon; 63.4 µM in the assay on NCI/ADR-RES ovarian; 44.5 µM with SK-MEL-2 melanoma; more than 100 µM in the assay on UACC-257 melanoma.

`C#CCOC(=O)c1ccccc1OC(C)=O`: the TGI with HOP-92 NSCLC, with KM12 colon, in the assay with NCI/ADR-RES ovarian, in the assay on SK-MEL-2 melanoma and with UACC-257 melanoma was more than 100 µM each time.

For `O=C(CCN1CCCC1)Nc1ccc2c(NCCCc3ccccc3)c3ccccc3nc2c1`, the GI50 was 0.875 µM with HOP-92 NSCLC; 1.17 µM with KM12 colon; 15.1 µM in the assay on NCI/ADR-RES ovarian; 1.69 µM in the assay on SK-MEL-2 melanoma; 1.81 µM with UACC-257 melanoma. Moreover, the TGI in the assay on HOP-92 NSCLC came out at 2.24 µM; with KM12 colon, 2.54 µM; with NCI/ADR-RES ovarian, 71.9 µM; with SK-MEL-2 melanoma it was 3.24 µM; in the assay with UACC-257 melanoma, 3.64 µM.

As to `CSC(=NCCN=C(NS(=O)(=O)c1ccc(Cl)cc1)SC)NS(=O)(=O)c1ccc(Cl)cc1`, the TGI with HOP-92 NSCLC is 58 µM; in the assay on NCI/ADR-RES ovarian, more than 100 µM; with SK-MEL-2 melanoma, more than 100 µM; in the assay with UACC-257 melanoma, more than 100 µM.

Consider `CCOC(=O)C(C)NC(=O)C(C)NC(=O)C(C)NC(=O)C(C)NC(=O)C(C)NC(=O)C(C)NC(=O)C(C)NC(=O)OCc1ccccc1` (configuration not stated) (Cbz-AAAAAAA-OEt; configuration not given here), for which the TGI in the assay on HOP-92 NSCLC, in the assay with KM12 colon and in the assay on NCI/ADR-RES ovarian was more than 100 µM in each case.

On to `C[N+]1(C)CN(c2ccccc2)C2(CCN(CCCC(=O)c3cccs3)CC2)C1=O`, for which the TGI with HOP-92 NSCLC, in the assay with KM12 colon, with NCI/ADR-RES ovarian, with SK-MEL-2 melanoma and in the assay on UACC-257 melanoma was more than 100 µM in each case.

As for `N#Cc1c(-c2ccc(Cl)cc2)c(C#N)c(=O)n(NS(=O)(=O)c2ccccc2)c1-c1ccccc1`, the TGI in the assay on HOP-92 NSCLC, in the assay with SK-MEL-2 melanoma and in the assay on UACC-257 melanoma was more than 25 µM each time.

As to `CC(=O)c1cn(-c2ccc(Cl)cc2)c(=O)c2c(N)n[nH]c12`, the TGI with KM12 colon, in the assay with NCI/ADR-RES ovarian, in the assay on SK-MEL-2 melanoma and in the assay with UACC-257 melanoma was more than 100 µM each time.

Consider `COC(=O)C1(Cc2cccc(Cl)c2)CCCCCCN1C(=O)c1ccccc1` (configuration not stated), for which the results for the TGI with HOP-92 NSCLC and with NCI/ADR-RES ovarian were 35.6 µM and 54.1 µM, respectively.

In the case of `O=C(O)CCC1(c2ccccc2)NC(=O)NC1=O` (configuration not stated), the TGI in the assay on HOP-92 NSCLC, in the assay on KM12 colon, in the assay on NCI/ADR-RES ovarian, with SK-MEL-2 melanoma and in the assay with UACC-257 melanoma was more than 100 µM each time.

For the molecule `COc1ccc(C)cc1NC(=S)N/N=C/c1ccc(SC)cc1`, the TGI with HOP-92 NSCLC, in the assay on KM12 colon, in the assay with NCI/ADR-RES ovarian and in the assay on SK-MEL-2 melanoma was more than 100 µM in each case.

Consider `CSCCCCCCCCCCOc1ccc(C=C2C(=C(C#N)C#N)c3ccccc3C2=C(C#N)C#N)cc1`, for which the TGI in the assay on HOP-92 NSCLC came to 26.9 µM; in the assay on KM12 colon it was 36.8 µM; with NCI/ADR-RES ovarian, 75.7 µM; in the assay on SK-MEL-2 melanoma, 36.7 µM; with UACC-257 melanoma, 35.4 µM.

For the molecule `CSc1c(C#N)c2n(c3ccccc3[n+]2C)c2ncccc12`, the TGI is more than 100 µM in the assay with KM12 colon, 85.5 µM in the assay on NCI/ADR-RES ovarian and 39.7 µM with SK-MEL-2 melanoma.

Take `CC/C(Cl)=N\OC(=O)Nc1ccc(C#N)cc1`: the TGI in the assay with HOP-92 NSCLC was found to be 8.54 µM; in the assay on KM12 colon it was 31.6 µM; in the assay on NCI/ADR-RES ovarian, 18.3 µM; with SK-MEL-2 melanoma, 30 µM; in the assay on UACC-257 melanoma, 29.8 µM.

For `CC(C)(C)OC(=O)NC(Cc1ccc([N+](=O)[O-])cc1)C(=O)NC(CCCCNC(=O)OCc1ccccc1)C(=O)ON1C(=O)CCC1=O` (configuration not stated), the TGI with HOP-92 NSCLC, in the assay with KM12 colon and in the assay with NCI/ADR-RES ovarian was more than 100 µM each time.

For the molecule `CC12ON=C(c3ccccc3)N1C=CN1C(c3ccccc3)=NOC12` (configuration not stated), the TGI in the assay with KM12 colon, with NCI/ADR-RES ovarian and in the assay on UACC-257 melanoma was more than 100 µM throughout.

As to `CCCCCCCCCN1CCC(=O)C(C(=O)OC)C1` (configuration not stated), the TGI in the assay with HOP-92 NSCLC worked out at 33.9 µM; in the assay with KM12 colon it was 13.1 µM; in the assay on NCI/ADR-RES ovarian, 26.8 µM; in the assay with UACC-257 melanoma, 24.7 µM.
